# Measured values published in PMC10244169, “Psychedelics promote plasticity by directly binding to BDNF receptor TrkB” (Nature Neuroscience, 2023).
# What was measured:
# TrkB = biological target: T1, TrkB (Rattus norvegicus, UniProt Q63604); experiment: biochemical; assay type: binding
# T1 construct: expressed in transfected cells; host or cells: HEK293T
# [1] = test system: spine density of neuronal cultures; experiment: Spinogenesis in mature neuronal cultures (WT and Y433F^+/−); assay type: cell-based, mouse; parameters: 6d: Mean (spinogenesis, spine density) / 6e: Mean (spinogenesis, spine density): unit not given here
# Procedure: Spinogenesis experiments were performed similarly to previous studies[12],[13] with modifications. […] In a separate set of experiments to study the effects of extracellular BDNF and 5-HT2A activation, cultures were also pretreated for 10 min with TrkB.FC (200 ng ml^−1) or M100907 (100 nM), respectively. TrkB.FC and M100907 remained in the medium for the rest of the experiment. Twenty-four hours later, coverslips were fixed with 4% PFA, washed with PBS, incubated with blocking buffer (0.1% Triton X-100, 0.05% Tween-20, 10% normal donkey serum, 1% BSA and 0.1% gelatin in PBS) for 1 h at room temperature and then overnight with rabbit anti-MAP2 (Invitrogen, PA5-17646; 1:100) primary antibody at 4 °C. After washing with PBS, coverslips were incubated with CF568-conjugated donkey anti-rabbit (Biotium, 20098; 1:500) for 1 h at room temperature. Another round of PBS washes was followed by incubation with Alexa Fluor 647-conjugated phalloidin (Invitrogen, A22287; 1:40) overnight at 4 °C. Next, coverslips were briefly washed in phosphate buffer (PB) and mounted on slides with ProLong Glass Antifade Mountant (Invitrogen, P36982). We used a Zeiss LSM 880 confocal microscope with an AiryScan GaAsP detector equipped with a PlanApochromat 63×/1.4 NA objective. We used the BP 495–550 + LP 570 AiryScan filter and Zen Black in super-resolution mode for image acquisition. Pinhole size was adapted accordingly, and frame size was set to optimal. Sensors were set to continuous adjustment across the imaging sessions to ensure optimal sensor alignment and signal detection. Raw data were processed into AiryScan images with the autofilter mode on using Zen Blue. Finally, image analysis was performed in ImageJ by experimenters blinded for treatment and genotype. Spines were quantified in 15-µm-long dendrite sections.
# [2] = test system: dendritic arbor complexity of neuronal cultures; experiment: Dendritogenesis (Sholl analysis) in neuronal cultures (WT and Y433F^+/−); assay type: cell-based, mouse
# Procedure: In a separate set of experiments to study the effects of extracellular BDNF and 5-HT2A activation, cultures were also pretreated for 10 min with TrkB.FC (200 ng ml^−1) or M100907 (100 nM), respectively. Similar to treatment with the psychedelics, TrkB.FC and M100907 pretreatments were administered in cumulative doses and remained in the medium for the rest of the experiment. At DIV7, neurons were pre-incubated for 1 h with […] MgCl2 to prevent excitotoxicity, then neurons were transfected for the heterologous expression of mCherry. To minimize any possible interference of the transfection protocol upon the drug effect, transfection was done in the morning while treatment with psychedelics was always added in the evening. Twenty-four hours after transfection, neurons were fixed with 4% PFA for 20 min at room temperature, washed in PBS-T, blocked for 30 min with 3% BSA in PBS-T and incubated with chicken anti-MAP2 (Abcam, ab5392; 1:5,000, 1 h, room temperature). Then, coverslips were washed in PBS-T and incubated with Alexa Fluor 647-conjugated antibody goat anti-chicken (Invitrogen, A-21449; 1:1,000, 1 h, room temperature). Next, coverslips were washed in PBS-T and MilliQ water, and mounted in Dako fluorescence mounting medium (Agilent, S302380-2). Ten optical sections with a Z-step of 1.3 μm were acquired using a Zeiss LSM 710 confocal microscope with a LCI Plan/Neofluar 25×/0.8 lmm Korr DIC M27 objective. In the mCherry channel, the center of the soma was manually assigned and the number of dendritic intersections at fixed distances (every 5 μm) from the soma was automatically counted using the Sholl analysis plugin of ImageJ.
# [3] = Y433F+/-:vehicle minus Y433F+/-:treatment
# [4] = ext fig 1f, competition curve, n=5
# [5] = TrkB.FC 200 ng ml^−1 or M100907 100 nM
# T1 sequence (Q63604 32-821): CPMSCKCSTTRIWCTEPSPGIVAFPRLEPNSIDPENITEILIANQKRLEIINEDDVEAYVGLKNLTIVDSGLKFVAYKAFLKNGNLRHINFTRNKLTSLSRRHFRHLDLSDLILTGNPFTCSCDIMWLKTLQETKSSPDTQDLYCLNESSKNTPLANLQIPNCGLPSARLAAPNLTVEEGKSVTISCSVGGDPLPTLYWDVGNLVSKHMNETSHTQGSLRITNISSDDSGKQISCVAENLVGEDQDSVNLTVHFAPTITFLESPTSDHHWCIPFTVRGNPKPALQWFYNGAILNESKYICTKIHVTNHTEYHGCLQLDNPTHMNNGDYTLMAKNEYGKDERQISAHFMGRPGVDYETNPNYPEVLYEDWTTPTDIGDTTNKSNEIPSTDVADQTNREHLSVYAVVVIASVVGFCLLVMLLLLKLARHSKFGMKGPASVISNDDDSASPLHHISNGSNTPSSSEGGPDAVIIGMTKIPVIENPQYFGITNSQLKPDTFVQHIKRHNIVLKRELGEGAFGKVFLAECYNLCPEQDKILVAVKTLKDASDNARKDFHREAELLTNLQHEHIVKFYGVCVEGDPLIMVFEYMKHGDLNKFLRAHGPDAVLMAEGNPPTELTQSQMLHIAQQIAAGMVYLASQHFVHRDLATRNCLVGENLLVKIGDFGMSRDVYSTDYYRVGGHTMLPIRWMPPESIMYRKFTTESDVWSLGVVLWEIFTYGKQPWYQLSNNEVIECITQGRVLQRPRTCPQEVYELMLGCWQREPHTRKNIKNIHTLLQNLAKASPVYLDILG
smiles,measurement,setting,value
"CN(C)CCc1c[nH]c2cccc(O)c12 [PSI, psilocin]",Ki,TrkB,6.73 ± 3.05 nM
same,"Bmax (best-fit, 1b)",TrkB; competition with ^3H-LSD,100.9
same,"h (best-fit, 1b)",TrkB; competition with ^3H-LSD,-0.492
same,"affinity to TrkB relative to other antidepressants (fluoxetine, ketamine)",TrkB; higher than other antidepressants,"1,000 fold"
same,"6d: Mean (spinogenesis, spine density)","[1]; WT neurons, vehicle mean 5.7",10.5
same,"6d: Mean Diff. (vehicle vs. treatment), Bonferroni's multiple comparisons test",[1]; WT:vehicle minus WT:treatment,-4.8
same,"6d: Mean (spinogenesis, spine density)","[1]; Y433F+/- neurons, vehicle mean 6.55",7
same,"6d: Mean Diff. (vehicle vs. treatment), Bonferroni's multiple comparisons test",[1]; [3],-0.45
same,spine density,"[1]; cultures from WT mice, 24 h, 100 nM",increase spine density
same,"6g: Mean (dendritogenesis, Sholl analysis)","[2]; WT neurons, vehicle mean 32.96",62.5
same,"6g: Mean Diff. (vehicle vs. treatment), Bonferroni's multiple comparisons test",[2]; WT:vehicle minus WT:treatment,-29.54
same,"6g: Mean (dendritogenesis, Sholl analysis)","[2]; Y433F+/- neurons, vehicle mean 44.44",31.05
same,"6g: Mean Diff. (vehicle vs. treatment), Bonferroni's multiple comparisons test",[2]; [3],13.39
same,dendritic arbor complexity,[2]; cultures from WT mice,enhance dendritic arbor complexity
same,dendritic arbor complexity,[2]; cultures from Y433F^+/− mice,not Y433F^+/− mice
same,"Sholl analysis, Mean at distance from soma","[2]; fig 6h, distance from soma 25 µm",3.05
same,"Sholl analysis, Mean at distance from soma","[2]; fig 6h, distance from soma 30 µm",2.75
same,"Sholl analysis, Mean at distance from soma","[2]; fig 6h, distance from soma 35 µm",2.15
same,"Sholl analysis, Mean at distance from soma","[2]; fig 6h, distance from soma 40 µm",1.55
same,"Sholl analysis, Mean at distance from soma","[2]; fig 6h, distance from soma 45 µm",1.35
same,"Sholl analysis, Mean at distance from soma","[2]; fig 6h, distance from soma 50 µm",1.3
same,"Sholl analysis, Mean at distance from soma","[2]; fig 6h, distance from soma 55 µm",0.95
same,"Sholl analysis, Mean at distance from soma","[2]; fig 6h, distance from soma 60 µm",0.8
same,"Sholl analysis, Mean at distance from soma","[2]; fig 6h, distance from soma 65 µm",0.75
same,"Sholl analysis, Mean at distance from soma","[2]; fig 6h, distance from soma 70 µm",0.7
same,"Sholl analysis, Mean at distance from soma","[2]; fig 6h, distance from soma 75 µm",0.55
same,"Sholl analysis, Mean at distance from soma","[2]; fig 6h, distance from soma 80 µm",0.45
same,"Sholl analysis, Mean at distance from soma","[2]; fig 6h, distance from soma 85 µm",0.45
same,"Sholl analysis, Mean at distance from soma","[2]; fig 6h, distance from soma 90 µm",0.4
same,"Sholl analysis, Mean at distance from soma","[2]; fig 6h, distance from soma 95 µm",0.65
same,"Sholl analysis, Mean at distance from soma","[2]; fig 6h, distance from soma 100 µm",0.55
same,6h: Mean (Sholl analysis),"[2]; first 6h table (N as WT), distance from soma 10 µm",6
same,6h: Mean (Sholl analysis),"[2]; first 6h table (N as WT), distance from soma 15 µm",7.15
same,6h: Mean (Sholl analysis),"[2]; first 6h table (N as WT), distance from soma 20 µm",7.85
same,6h: Mean (Sholl analysis),"[2]; first 6h table (N as WT), distance from soma 25 µm",6.65
same,6h: Mean (Sholl analysis),"[2]; first 6h table (N as WT), distance from soma 30 µm",5.65
same,6h: Mean (Sholl analysis),"[2]; first 6h table (N as WT), distance from soma 35 µm",4.5
same,6h: Mean (Sholl analysis),"[2]; first 6h table (N as WT), distance from soma 40 µm",3.6
same,6h: Mean (Sholl analysis),"[2]; first 6h table (N as WT), distance from soma 45 µm",2.75
same,6h: Mean (Sholl analysis),"[2]; first 6h table (N as WT), distance from soma 50 µm",2.6
same,6h: Mean (Sholl analysis),"[2]; first 6h table (N as WT), distance from soma 55 µm",2.5
same,6h: Mean (Sholl analysis),"[2]; first 6h table (N as WT), distance from soma 60 µm",2.35
same,6h: Mean (Sholl analysis),"[2]; first 6h table (N as WT), distance from soma 65 µm",1.75
same,6h: Mean (Sholl analysis),"[2]; first 6h table (N as WT), distance from soma 70 µm",1.7
same,6h: Mean (Sholl analysis),"[2]; first 6h table (N as WT), distance from soma 75 µm",1.35
same,6h: Mean (Sholl analysis),"[2]; first 6h table (N as WT), distance from soma 80 µm",1.15
same,6h: Mean (Sholl analysis),"[2]; first 6h table (N as WT), distance from soma 85 µm",1.1
same,6h: Mean (Sholl analysis),"[2]; first 6h table (N as WT), distance from soma 90 µm",1.3
same,6h: Mean (Sholl analysis),"[2]; first 6h table (N as WT), distance from soma 95 µm",1.05
same,6h: Mean (Sholl analysis),"[2]; first 6h table (N as WT), distance from soma 100 µm",1.5
same,6h: Mean (Sholl analysis),"[2]; second 6h table (N as Y433F), distance from soma 10 µm",4.8
same,6h: Mean (Sholl analysis),"[2]; second 6h table (N as Y433F), distance from soma 15 µm",4.05
same,6h: Mean (Sholl analysis),"[2]; second 6h table (N as Y433F), distance from soma 20 µm",3.8
COc1cccc([C@H](O)C2CCN(CCc3ccc(F)cc3)CC2)c1OC [M100907],displacement of ^3H-LSD from TrkB,TrkB; 1 nM to 10 µM of drug,fail to displace LSD binding to TrkB
same,"Fit status, specific binding with Hill slope",TrkB; ext fig 1f,Ambiguous
same,"Bmax (specific binding with Hill slope, best-fit)",TrkB; [4],94.18
same,"h (Hill slope, best-fit)",TrkB; [4],~ 1.901
same,effect of pretreatment on spinogenic effect of LSD,[1]; [5],not M100907 prevented the spinogenic effect of LSD
same,"6e: Mean Diff. (Vehicle:Vehicle vs. treatment), Bonferroni's multiple comparisons test",[1]; substance alone (with vehicle),-2.8
same,"6e: Mean (spinogenesis, spine density)","[1]; substance alone (with vehicle), Vehicle:Vehicle mean 7.05",9.85
same,effect of pretreatment on LSD effects on dendritogenesis,[2]; [5],not M100907 prevented LSD effects on dendritogenesis
same,"dendritic arbor complexity, Mean Diff. (Vehicle:vehicle vs. group)","[2]; fig 6i, Bonferroni's multiple comparisons test",-9.087
same,"dendritic arbor complexity, group mean (Mean 2)","[2]; fig 6i, treatment:pretreatment groups, Vehicle:vehicle mean 69.72",78.81
same,"Sholl analysis, Mean at distance from soma","[2]; fig 6j, distance from soma 10 µm",6.619
same,"Sholl analysis, Mean at distance from soma","[2]; fig 6j, distance from soma 15 µm",6.476
same,"Sholl analysis, Mean at distance from soma","[2]; fig 6j, distance from soma 20 µm",6.048
same,"Sholl analysis, Mean at distance from soma","[2]; fig 6j, distance from soma 25 µm",6.333
same,"Sholl analysis, Mean at distance from soma","[2]; fig 6j, distance from soma 30 µm",5.286
same,"Sholl analysis, Mean at distance from soma","[2]; fig 6j, distance from soma 35 µm",4.524
same,"Sholl analysis, Mean at distance from soma","[2]; fig 6j, distance from soma 40 µm",4.619
same,"Sholl analysis, Mean at distance from soma","[2]; fig 6j, distance from soma 45 µm",3.714
same,"Sholl analysis, Mean at distance from soma","[2]; fig 6j, distance from soma 50 µm",3.667
same,"Sholl analysis, Mean at distance from soma","[2]; fig 6j, distance from soma 55 µm",3.571
same,"Sholl analysis, Mean at distance from soma","[2]; fig 6j, distance from soma 60 µm",3.381
same,"Sholl analysis, Mean at distance from soma","[2]; fig 6j, distance from soma 65 µm",3.238
same,"Sholl analysis, Mean at distance from soma","[2]; fig 6j, distance from soma 70 µm",2.905
same,"Sholl analysis, Mean at distance from soma","[2]; fig 6j, distance from soma 75 µm",2.857
same,"Sholl analysis, Mean at distance from soma","[2]; fig 6j, distance from soma 80 µm",3.429
same,"Sholl analysis, Mean at distance from soma","[2]; fig 6j, distance from soma 85 µm",3.429
same,"Sholl analysis, Mean at distance from soma","[2]; fig 6j, distance from soma 90 µm",3.381
same,"Sholl analysis, Mean at distance from soma","[2]; fig 6j, distance from soma 95 µm",2.619
same,"Sholl analysis, Mean at distance from soma","[2]; fig 6j, distance from soma 100 µm",2.714
